Experimental findings from patent publication US20240307294A1, “Topical Composition and Carrier for Administration of Pharmaceutically or Cosmetically Active Ingredients” (EMOLLIVET AB, priority 2013, published 2024) are described below.

This data set can be described thus: Carrier dissolution capacity (admixing controlled amounts of active agent). Type of data set: physicochemical. As to the method:
The dissolution capacity of different carriers was tested by admixing controlled amounts of active agent.

Setting [1] is: carrier Lipoid S100 0.0 / Urea 2.0 / Ethanol 98.0 % w/w.
[2] abbreviates: carrier Lipoid S100 5.0 / Urea 2.0 / Ethanol 93.0 % w/w.
The mark [3] stands for this setting: carrier Lipoid S100 10.0 / Urea 2.0 / Ethanol 88.0 % w/w.
The mark [4] stands for this setting: carrier Lipoid S100 20.0 / Urea 2.0 / Ethanol 78.0 % w/w.
The mark [5] stands for this setting: carrier Lipoid S100 30.0 / Urea 2.0 / Ethanol 68.0 % w/w.

As for `C[C@]12CCC(=O)C=C1CC[C@@H]1[C@@H]2[C@@H](O)C[C@@]2(C)[C@H]1CC[C@]2(O)C(=O)CO` [Hydrocortisone], the Highest complete dissolution under setting [1] is listed as 2.09 % w/w; the Highest complete dissolution under setting [2] was 2.22 % w/w; the Highest complete dissolution under setting [3] is 2.48 % w/w; the Highest complete dissolution under setting [4] was 2.82 % w/w; the Highest complete dissolution under setting [5] came to 3.19 % w/w; the Highest complete dissolution (carrier Lipoid S100 49.5 / Urea 1.0 / Ethanol 49.5 % w/w) was determined as 2.89 % w/w. Besides, the Lowest incomplete dissolution reads like this: under setting [1], 2.25 % w/w; (carrier Lipoid S100 5.0 / Urea 1.0 / Ethanol 94.0 % w/w) 2.28 % w/w; under setting [2], 2.37 % w/w; under setting [3], 2.83 % w/w; under setting [4], 3.22 % w/w; under setting [5], 3.50 % w/w.

In the case of Calcium pantothenate, the Highest complete dissolution reads like this: under setting [1], 0.27 % w/w; (carrier Lipoid S100 3.4 / Urea 2.0 / Ethanol 94.7 % w/w) 0.41 % w/w; under setting [2], 0.50 % w/w; under setting [3], 0.98 % w/w; under setting [4], 1.81 % w/w; under setting [5], 3.17 % w/w. Under setting [1], this compound returned a Lowest incomplete dissolution of 0.40 % w/w.
